Key:
HS-PSS [1] = assay: % inhibition of CellTiter-Glo viability at highest tested concentration (72 h), relative to DMSO and benzethonium chloride controls; higher = more inhibition
Method in brief: (§1)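 For this screen, 384-well plates were preprinted with each compound at five concentrations in 10-fold steps and seeded with MPNST cell lines or primary human Schwann cells at 750–1000 cells per well. Incubation lasted 72 h at 37 °C, 5% CO2, and CellTiter-Glo ATP luminescence, scaled between vehicle and positive-control wells and averaged over duplicates where available, served as viability. Logistic fits with four parameters were applied. Relative IC50 (censored at the top concentration) and drug sensitivity score derive from these fits, and percent inhibition is at the top concentration.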

YST-1 [2] = assay: as above
Method in brief: as §1

HS-Sch-2 [3] = assay: as above
Method in brief: as §1

HS-PSS [4] = assay: drug sensitivity score (DSS, CellTox-Green cytotoxicity, 72 h) (DSS (dimensionless)); higher = more cytotoxic; extreme values may be limits of the assay
Method in brief: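 MPNST cell lines and primary human Schwann cells were grown for 72 h at 37 °C in 384-well plates containing five 10-fold compound dilutions. CellTox-Green, added before seeding at a final 1:1000 dilution, gave fluorescence from DNA released by disrupted cells, and signals were scaled to vehicle and positive-control wells. Curves were fitted with a four-parameter logistic model. Drug sensitivity score and relative IC50 come from these fits, with IC50 censored at the top concentration.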

HS-PSS [5] = assay: drug sensitivity score (DSS, CellTiter-Glo viability, 72 h) (DSS (dimensionless)); higher = more sensitive; extreme values may be limits of the assay
Method in brief: as §1

YST-1 [6] = assay: as above
Method in brief: as §1

HS-Sch-2 [7] = assay: as above
Method in brief: as §1

Compound | % inhibition (HS-PSS [1]) [%] | % inhibition (YST-1 [2]) [%] | % inhibition (HS-Sch-2 [3]) [%] | drug sensitivity score (HS-PSS [4]) | drug sensitivity score (HS-PSS [5]) | drug sensitivity score (YST-1 [6]) | drug sensitivity score (HS-Sch-2 [7])
CCn1cc(-c2ccnc3[nH]c(-c4cccc(CN(C)C)c4)cc23)c(-c2ccc(NC(=O)N(C)C)cc2)n1 (max concentration tested 1000 nM) | 46.2 | 33.4 | 54 | 0 | 4.28 | 10.8 | 4.77
CNC(=O)c1ccc(C)c(-n2c(C)cc(OCc3ccc(F)cc3F)c(Br)c2=O)c1 (max concentration tested 1000 nM) | 8.35 | 38.4 | 4 | 0 | 0 | 5.16 | 0
C[C@@H](Oc1ccc2[nH]nc(/C=C/c3cnn(CCO)c3)c2c1)c1c(Cl)cncc1Cl (max concentration tested 1000 nM) | 91 | 55.4 | 67.9 | 2.66 | 7.62 | 6.1 | 6.87
C[C@H]1Oc2cc(cnc2N)-c2c(nn(C)c2C#N)CN(C)C(=O)c2ccc(F)cc21 (max concentration tested 1000 nM) | 53.9 | 3.35 | 14.9 | 0 | 12.3 | 0 | 0.53
O=C(NOC[C@H](O)CO)c1ccc(F)c(F)c1Nc1ccc(I)cc1F (max concentration tested 1000 nM) | 12.4 | -8.18 | 15 | 0 | 0.01 | 0 | 0.69
CCOc1ccn(-c2ccc(F)cc2)c(=O)c1C(=O)Nc1ccc(Oc2ccnc(N)c2Cl)c(F)c1 (max concentration tested 2500 nM) | 15.6 | 2.08 | 4.22 | 0 | 1.43 | 0 | 0
CNC(=O)c1c(F)cccc1Nc1nc(Nc2cc3c(cc2OC)CCN3C(=O)CN(C)C)nc2[nH]ccc12 (max concentration tested 2500 nM) | 59.1 | 66.3 | 11.8 | 1.53 | 13.9 | 11.8 | 0.22
Cc1cccc(CC(=O)N2CCc3c2ccc(-c2cn(C)c4ncnc(N)c24)c3F)n1 (max concentration tested 2500 nM) | 29.6 | 14.4 | 16.1 | 0 | 0.96 | 0.36 | 0.16
OCCn1cc(-c2cnc3nnn(Cc4ccc5ncccc5c4)c3n2)cn1 (max concentration tested 2500 nM) | 9.08 | 18.5 | 0.31 | 0 | 0.05 | 0.62 | 0
CNC(=O)c1ccccc1Nc1nc(Nc2ccc3c(c2OC)CCC[C@H](N2CCN(CCO)CC2)C3)ncc1Cl (max concentration tested 5000 nM) | 86.5 | 82.8 | 98.5 | 2.99 | 15 | 8.71 | 7.99
Cc1ncc(Cl)cc1NCc1ccc(C(=O)N[C@@H](CC2CCCC2)C(=O)NC2CC2)s1 (max concentration tested 5000 nM) | 10.8 | 45.9 | 12.8 | 0 | 0 | 8.01 | 0.17
CC(=O)NCC(=O)N1[C@@H]2CC[C@H]1c1ccc(Nc3ncc(C(F)(F)F)c(NC4CCC4)n3)cc12 (max concentration tested 10000 nM) | 87.8 | 82.8 | 99.3 | 1.86 | 9.91 | 10.5 | 11.5
CC(C)(C)C[C@@H]1N[C@@H](C(=O)N[C@H]2CC[C@H](O)CC2)[C@H](c2cccc(Cl)c2F)[C@]12C(=O)Nc1cc(Cl)ccc12 (max concentration tested 10000 nM) | 36.2 | 100 | 19.6 | 0 | 1.67 | 21.9 | 0.86
CC(C)CC(=O)Nc1n[nH]c2c1CN(C(=O)C1CCN(C)CC1)C2(C)C (max concentration tested 10000 nM) | 83.7 | 99.8 | 101 | 2.57 | 11.5 | 11.8 | 10.2
CC(C)Oc1ccc(C(=O)N[C@H](CNC(=O)CN(C)C)Cc2ccc(-c3cn4cccc([C@H](C)O)c4n3)cc2)cc1Cl (max concentration tested 10000 nM) | 66.7 | 62 | 95.2 | 1.48 | 8.56 | 19.5 | 24.1
CCNC(=O)C[C@@H]1N=C(c2ccc(Cl)cc2)c2cc(OC)ccc2-n2c(C)nnc21 (max concentration tested 10000 nM) | 58.4 | 65.3 | 63.1 | 0 | 7.28 | 10.2 | 8.49

Compound | % inhibition (HS-PSS [1]) [%] | % inhibition (YST-1 [2]) [%] | % inhibition (HS-Sch-2 [3]) [%] | drug sensitivity score (HS-PSS [4]) | drug sensitivity score (HS-PSS [5]) | drug sensitivity score (YST-1 [6]) | drug sensitivity score (HS-Sch-2 [7])
CCn1c(-c2nonc2N)nc2c(C#CC(C)(C)O)ncc(OC[C@H]3CCCNC3)c21 (max concentration tested 10000 nM) | 3.9 | -24.9 | 39 | 0 | 0 | 0 | 3.35
CN(c1ncccc1CNc1nc(Nc2ccc3c(c2)CC(=O)N3)ncc1C(F)(F)F)S(C)(=O)=O (max concentration tested 10000 nM) | 73.3 | 98.6 | 99.2 | 0.03 | 3.86 | 7.85 | 5.18
CNc1ncc2cc(-c3cc(NC(=O)NCCC(C)(C)C)c(F)cc3C)c(C)nc2n1 (max concentration tested 10000 nM) | 69.1 | 46.5 | 55.9 | 0.82 | 3.13 | 6.37 | 10.8
COCC(=O)NC/C=C/c1ccc2ncnc(Nc3ccc(Oc4ccc(C)nc4)c(C)c3)c2c1 (max concentration tested 10000 nM) | 56.7 | 19.9 | 32.2 | 0 | 5.3 | 0.62 | 3.05
COc1cc2ncnc(Oc3cccc(NC(=O)Nc4cc(C(C)(C)C(F)(F)F)on4)c3)c2cc1OC (max concentration tested 10000 nM) | 3.34 | 3.62 | -3.7 | 0 | 0 | 0.17 | 0
COc1ccc(Cn2ccc3ccc(C(=O)NO)cc32)cc1 (max concentration tested 10000 nM) | 18.1 | 56.2 | 46.8 | 0 | 0.33 | 5.14 | 2.02
CS(=O)(=O)N1CCc2c(-c3cnc(N)nc3)nc(N3CCOCC3)nc21 (max concentration tested 10000 nM) | 42.7 | 77.8 | 32 | 0 | 4.81 | 14.4 | 3.35
C[C@@H](Oc1cc(-n2cnc3ccc(CN4CCN(C)CC4)cc32)sc1C(N)=O)c1ccccc1C(F)(F)F (max concentration tested 10000 nM) | 101 | 86.8 | 99.8 | 5.06 | 14.6 | 27.3 | 34.6
Cn1cc(-c2ccc3nnc(C(F)(F)c4ccc5ncccc5c4)n3n2)cn1 (max concentration tested 10000 nM) | 17.4 | 18.4 | 11.5 | 0 | 1.21 | 0.54 | 0.05
Cn1cc(C2=Nc3cc(NC(=O)C(N)C4CCCCC4)cc4c3C2=CNNC4=O)cn1 (configuration not stated) (max concentration tested 10000 nM) | 43.5 | 51.3 | 84.3 | 0 | 8.91 | 14.8 | 22.7
NC[C@@](O)(c1ccc(Cl)cc1)c1ccc(-c2cn[nH]c2)cc1 (max concentration tested 10000 nM) | 97.9 | 73.8 | 91.8 | 6.26 | 7.75 | 4.33 | 8.76
O=C(NC[C@H](O)CN1CCc2ccccc2C1)c1cc(NC2COC2)ncn1 (max concentration tested 10000 nM) | 17.6 | 14.1 | 10.7 | 0 | 0.24 | 0.06 | 0.29
O=C(O)c1ccc(CN2CCC(CN[C@@H]3C[C@H]3c3ccccc3)CC2)cc1 (max concentration tested 10000 nM) | 2.06 | -3.86 | -4.91 | 0 | 0 | 0 | 0
O=C1NC(=O)/C(=C/c2ccc3nccc(-c4ccncc4)c3c2)S1 (max concentration tested 10000 nM) | 49.6 | 86.6 | 37.8 | 0 | 2.69 | 9.37 | 1.71
O=c1[nH]c(C2CCCN2)nc2c1oc1ccc(Cl)cc12 (configuration not stated) (max concentration tested 10000 nM) | 33.3 | 63.8 | 19.3 | 0 | 2.86 | 6.83 | 2.7
